This is an account of results in paper PMC5856640 (ACS chemical biology, 2018).

Structures are written as SMILES.

The target of the assay is Mpa (mycobacterial proteasome ATPase) (Mycobacterium tuberculosis, UniProt P9WQN5). Put plainly: […]. The format is binding.
Mpa (mycobacterial proteasome ATPase), sequence (P9WQN5 whole entry): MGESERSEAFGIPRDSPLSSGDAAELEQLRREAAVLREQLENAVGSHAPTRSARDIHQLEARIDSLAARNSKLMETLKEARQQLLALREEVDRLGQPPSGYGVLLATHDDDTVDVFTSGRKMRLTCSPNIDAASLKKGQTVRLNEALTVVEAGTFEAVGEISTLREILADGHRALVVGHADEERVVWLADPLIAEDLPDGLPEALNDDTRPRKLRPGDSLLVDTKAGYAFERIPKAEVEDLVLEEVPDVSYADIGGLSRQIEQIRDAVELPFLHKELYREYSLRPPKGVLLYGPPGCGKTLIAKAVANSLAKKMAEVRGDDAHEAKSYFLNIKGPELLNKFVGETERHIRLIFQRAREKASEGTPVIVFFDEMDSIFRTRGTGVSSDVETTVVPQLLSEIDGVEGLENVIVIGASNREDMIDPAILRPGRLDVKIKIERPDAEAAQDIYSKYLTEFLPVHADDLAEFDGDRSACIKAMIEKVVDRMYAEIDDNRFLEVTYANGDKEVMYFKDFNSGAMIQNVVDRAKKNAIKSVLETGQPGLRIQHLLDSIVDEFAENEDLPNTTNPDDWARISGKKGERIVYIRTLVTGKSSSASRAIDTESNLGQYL

Consider `c1ccc(N=NN2CCOCC2)cc1` [MTBA, NSC 136065], for which binding was characterised by a dissociation constant (Kd) of 1 ± 0.1 nM.
Then `Cn1cnc2ncnn2c1=S` [MTBB, NSC 145180], with 400 ± 100 nM.
